What all share (test): NCI tumour cell line growth inhibition, 48 h
Test [1] concerns CAKI-1 renal.
The subject of test [2] is SK-MEL-5 melanoma.
Test [3] deals with SNB-75 CNS.
Test [4] deals with HOP-92 NSCLC.
Test [5] relates to OVCAR-5 ovarian.
The subject of test [6] is LOX IMVI melanoma.
Test [7] has as its system HOP-62 NSCLC.
Test [8] deals with PC-3 prostate.
Test [9] has as its system HS 578T breast.
Test [10] has as its system BT-549 breast.

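Compound exposure: 48 hours, 5 concentrations, 96-well plates. The concentration for 50% growth inhibition is given as GI50. The concentration for full growth arrest is given as TGI.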

This passage reports GI50 and TGI results from PubChem BioAssay (NCI).

As for `CC[O-].CC[O-].O=C1C=C([O-])C(=O)c2ccccc21.O=C1C=C([O-])C(=O)c2ccccc21.[Ti+4]`, the GI50 is > 100 µM in test [1]; 3.07 µM in [2]; 4.99 µM in test [3]; > 100 µM in test [4]; > 100 µM in test [5]; 5.25 µM in test [6]. The GI50 in test [7] is > 100 µM. Further, the TGI is > 100 µM in test [1]; 55.9 µM in test [2]; > 90.1 µM in [3]; > 100 µM in [4]; > 100 µM in test [5]; > 100 µM in [6]. Moreover, the TGI in test [7] is > 100 µM.

Regarding `CCN(N=O)C1C2(CCCC2)NC(=O)C12CCCC2` (stereo not drawn), the TGI in [3], in [5], in test [6] and in test [7] was > 100 µM each time.

In the case of `O=C(O)c1ccc(CSc2nc3ccccc3[nH]2)cc1`, the GI50 in test [1], in test [2], in test [3], in test [8], in test [9] and in [4] was > 100 µM throughout. The GI50 in [5], in [6] and in [7] was > 100 µM in each case. Further, the TGI in test [1], in test [2], in [3], in test [8], in test [9] and in test [4] was > 100 µM throughout. In addition, the TGI in [5], in [6] and in test [7] was > 100 µM each time.

Take `CC1(C)CC[C@]23CC[C@]4(C)[C@H](CC[C@@H]5[C@@]6(C)CCCNC(C)(C)[C@@H]6CC[C@]54C)[C@H]2[C@H]1OC3`: the GI50 is 1.62 µM in [1]; 1.69 µM in test [2]; 1.5 µM in test [3]; 1.61 µM in test [8]; 1.96 µM in [9]; 1.6 µM in test [5]. Moreover, the GI50 in test [7] was 1.91 µM. Also, the TGI in [1] was 2.97 µM; in [2], 3.06 µM; in [3] it was 2.94 µM; in test [8], 3.17 µM; in test [9] it was 4.69 µM; in test [5], 3.04 µM. The TGI in test [7] came out at 3.75 µM.

As to `Cc1[nH]c(=O)n2c(C)nnc2c1C(=O)O`, the TGI in test [1], in test [4], in test [5], in test [6] and in [7] was > 100 µM throughout.

On to `NNC(=O)/C(NC(=O)c1ccccc1)=C(\N)c1cccc([N+](=O)[O-])c1`, for which the TGI in [1], in test [2], in test [3], in [4], in test [5] and in test [6] was > 100 µM each time. Also, in test [7], the TGI is > 100 µM.

Consider `OC1(C(Sc2ccccc2)Sc2ccccc2)CCCCCC1`, for which the TGI in test [1] is 74.9 µM; in [2], 29.6 µM; in test [3] it was > 100 µM; in test [4], 56.5 µM; in test [6] it was 40 µM; in test [7], 59.5 µM.

Regarding `CC(=O)OC(C(=O)[O][Ge]([CH3])([CH3])[CH3])c1ccccc1` (stereo not drawn), the GI50 in test [1], in [2], in test [3], in test [4], in test [5] and in [6] was > 100 µM throughout. In addition, the GI50 in test [7] is > 100 µM. For the same molecule, the TGI in test [1], in test [2], in test [3], in test [4], in test [5] and in test [6] was > 100 µM throughout. Also, the TGI in test [7] was > 100 µM.

Consider `CC1=C2CC[C@@]3(C)C(=CCC3O)C2(C)CCC1=O` (stereo partly drawn), for which the TGI in test [1], in [2], in test [3], in [4], in test [5] and in [6] was > 100 µM throughout. In addition, the TGI in test [7] is > 100 µM.

Consider `Cc1ccc2ncnc(N(C)C3CCCCC3)c2c1`, for which the GI50 was 13.9 µM in [1]; > 100 µM in [2]; 27.1 µM in [8]; > 100 µM in test [9]; 14.6 µM in test [4]; 41.2 µM in [5]. For the same molecule, the GI50 is 21.7 µM in test [6] and 28.7 µM in test [7]. Moreover, the TGI in [1] is 39 µM; in test [2], > 100 µM; in test [8], 87.4 µM; in test [9], > 100 µM; in test [4], 42.7 µM; in test [5], > 100 µM. Besides, the TGI in test [6] is 68.3 µM; in test [7], > 100 µM.

Consider `CC(=O)OC(COc1ccc2c(c1)[n+]([O-])nc(N)[n+]2[O-])CN1CCCCC1` (stereo not drawn), for which the TGI in test [1] was > 100 µM; in [2] it was 14.6 µM; in test [3] it was 46.7 µM; in [10], > 100 µM; in test [4] it was > 100 µM; in test [5] it was 61.2 µM.

Consider `CCOC(=O)CCc1c(C)c2c(OC)cc(OC)cc2oc1=O`, for which the TGI in test [1], in test [3], in test [4], in test [5], in test [6] and in test [7] was > 100 µM each time.

For the molecule `CC(=O)Oc1ccc2c(=O)c(C(C)=O)coc2c1`, the TGI in [1], in [2], in test [4], in [5], in [6] and in [7] was > 100 µM each time.

With `COC(=O)C1c2cc3c(c(O)c2CCC1(C)O)C(=O)c1c(O)cc2c(c1C3=O)OC1OC2(C)C(O)C(N(C)C)C1O` (stereo not drawn), the TGI in test [2] worked out at 1.73 µM; in test [3], 1.37 µM; in test [8] it was 1.79 µM; in test [9], 3.77 µM; in [5] it was 1.03 µM; in [6], 1.4 µM. This molecule registered a TGI in test [7] of 1.58 µM.

With `CNC(=O)/C=C/C1=CN2C(=O)c3ccc(C)c(O)c3NC(OC)C2C1` (stereo not drawn), the TGI is 2.63 µM in test [1]; 0.186 µM in test [2]; < 0.0269 µM in test [3]; 0.447 µM in [8]; < 0.0264 µM in test [9]; > 31 µM in [5]. In addition, the TGI came to 4.19 µM in [6] and 0.328 µM in [7].

Take `CC1(C)N=C(N)N=C(N)N1c1ccc(OCC(=O)Nc2ccc(S(=O)(=O)F)cc2Cl)c(Cl)c1`: the GI50 was 1.15 µM in test [2]; 5.72 µM in test [3]; 58.4 µM in test [10]; 0.65 µM in [8]; > 100 µM in [5]; 1.12 µM in test [6]. Further, the GI50 in test [7] was 7.81 µM. Moreover, the TGI in [2], in test [3], in test [10], in [8], in test [5] and in test [6] was > 100 µM in each case. The TGI in test [7] was > 100 µM.

Consider `OC1CC(O)O[C@H](c2ccccc2)C1` (stereo partly drawn), for which the TGI in [1], in test [2], in [3], in [4], in test [5] and in test [6] was > 100 µM each time. Besides, the TGI in test [7] was > 100 µM.

As to `CCOC(=O)C(C(=O)OCC)=C1C=C(c2ccccc2)c2ccccc21`, the TGI in test [2] was > 100 µM; in test [3], > 100 µM; in test [4] it was 46.8 µM; in test [5] it was > 100 µM; in test [6], > 100 µM; in test [7], > 100 µM.

For `CC(=O)[O-].CC(=O)[O-].O=C([CH-]C(=O)c1ccccc1)c1ccccc1.[Nd+3].[OH3+]`, the GI50 in test [1] is 27.9 µM; in [2] it was 14.5 µM; in [3], 6.24 µM; in test [4], 20.1 µM; in [5], 68.4 µM; in [6], 22.4 µM. For the same molecule, the GI50 in test [7] is 14.7 µM. In addition, the TGI in test [1] is 91.3 µM; in [2] it was 33.9 µM; in test [3] it was 32.9 µM; in test [4] it was 63.8 µM; in test [5], > 100 µM; in test [6], > 100 µM. In test [7], this molecule displayed a TGI of 73.6 µM.

Take `O=C(c1ccccc1)n1cc(/C=C/[N+](=O)[O-])c2ccccc21`: the TGI in [1] is > 100 µM; in test [2], > 100 µM; in test [3], 82.1 µM; in [4] it was 54.1 µM; in test [5], > 100 µM; in [6], 29.8 µM. Further, the TGI in test [7] is > 100 µM.

Regarding `CC(=O)OCc1nnn2c1C(OC(C)=O)CC2` (stereo not drawn), the TGI in [1], in test [2], in test [3], in test [4] and in test [5] was > 100 µM in each case.

`C[C@@H](NC1CCCC[C@@H]1O)c1ccccc1` (stereo partly drawn): the TGI in [1], in test [2], in [3], in test [4], in test [5] and in test [6] was > 100 µM throughout. The TGI in test [7] was > 100 µM.
